From patent publication US11542287B2, “Alkyldiphenylmethane protective agent” (priority 2017, dated 2023) come the findings set out here.

Structures are written as SMILES. ≈ marks a conversion by molar mass, not a printed value. Peptide text beside a SMILES is read from it. Bounds are passed on as bounds.

The nature of the series: physchem. It is filed as physicochemical. How it is done: Results of measurement of solubility of a peptide protected with an alkyldiphenylmethane protective agent of the present invention are shown below.
Peptide used as model: H-Phe-Leu-Gly-NH2
H-Phe-Leu-Gly-NH2 and H-Phe-Leu-Gly-NH-(TIPS2-Dpm(Me)) were synthesized, CPME (cyclopentyl methyl ether) was saturated with each of the compounds at 25° C., and the solubility was measured.
As a result, merely 0.2 mM of H-Phe-Leu-Gly-NH2 to which an alkyldiphenylmethane protective agent was not bonded was dissolved in CPME. […] H-Phe-Leu-Gly-NH2 and H-Phe-Leu-Gly-NH-(TIPS2-Dpm(Me)) represent the following structures.

As a reminder, the solubility is the concentration that dissolves in the medium under given conditions. A lower solubility goes with a poorly soluble substance.

Molecule `CC(C)C[C@H](NC(=O)[C@@H](N)Cc1ccccc1)C(=O)NCC(N)=O` [H-Phe-Leu-Gly-NH2, reference compound] (H-Phe-Leu-Gly-NH2) registered a solubility of 200 µM (≈ 0.0669 mg/mL).
On to `CC(C)C[C@H](NC(=O)[C@@H](N)Cc1ccccc1)C(=O)NCC(=O)NC(C)(c1ccc(OCCCCCCCCCCCO[Si](C(C)C)(C(C)C)C(C)C)cc1)c1ccc(OCCCCCCCCCCCO[Si](C(C)C)(C(C)C)C(C)C)cc1` [H-Phe-Leu-Gly-NH-(TIPS2-Dpm(Me))], for which the “increase in solubility versus H-Phe-Leu-Gly-NH2” value was ≥ 4,190 fold and the solubility was at least 838000 µM.
